In US9777003B2, “Tricyclic heterocycles as bet protein inhibitors” (Incyte Corporation, priority 2013, dated 2017) one finds IC50 data, which are given here for 29 compounds.

The target of test [1] is BRD4-BD1 (Homo sapiens (Human), UniProt O60885). Kind of test: BRD4 AlphaScreen assay, BRD4-BD1. Format: binding. As to conditions: biotin-labeled tetra-acetylated histone H4 peptide, 75 min, room temperature, read-out: BRD4 BD-1 enzyme IC50. In a few lines:
(§1)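 Displacement of 50 nM biotinylated tetra-acetylated H4 peptide (H4Ac4) from BRD4-BD1 (3.8 nM) or BRD4-BD2 (20 nM) in HEPES pH 7.4, 100 mM NaCl, CHAPS, BSA; 75 min at room temperature. Streptavidin donor/GSH acceptor beads were added for a further 75 min in the dark; IC50 from percent control activity versus log concentration.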
Background: In Alpha technology, singlet oxygen from a donor bead excites a nearby acceptor bead.

In test [2] the target is BRD4-BD2 (Homo sapiens (Human), UniProt O60885). The test is described as follows: BRD4 AlphaScreen assay, BRD4-BD2. It counts as binding. The note with it: biotin-labeled tetra-acetylated histone H4 peptide, 75 min, room temperature, read-out: BRD4 BD-2 enzyme IC50. In a few lines:
as §1

As usually defined, the IC50 is the concentration at which inhibition is half-maximal.

Where a name gives a salt, the structure may show the parent alone.

For the compound `Cc1ccccc1Cn1c(C)cc2c1ccc1nnc(C)n12` [Example 17, 1,7-dimethyl-6-(2-methylbenzyl)-6H-pyrrolo[2,3-e][1,2,4]triazolo[4,3-a]pyridine], the IC50 in test [1] and in test [2] was at most 100 nM in each case.
With `Cc1cc2c(cc(NC(N)=O)c3nnc(C)n32)n1Cc1c(F)cccc1F` [Example 254, 1-(6-(2,6-Difluorobenzyl)-1,7-dimethyl-6H-pyrrolo[2,3-e][1,2,4]triazolo[4,3-a]pyridin-4-yl)urea], the IC50 in test [1] and in test [2] was at most 100 nM each time.
Consider `CCNC(=O)CCn1ccc(-c2cc3c(ccc4nnc(C)n43)n2Cc2ccccc2)n1` [Example 96, 3-[3-(6-benzyl-1-methyl-6H-pyrrolo[2,3-e][1,2,4]triazolo[4,3-a]pyridin-7-yl)-1H-pyrazol-1-yl]-N-ethylpropanamide], for which the IC50 in test [1] and in test [2] was at most 100 nM in each case.
Regarding `Cc1nnc2ccc3c(cc(-c4ccn(C)n4)n3Cc3cc(Cl)cc(CN4CCC4)c3)n12` [Example 185, 6-[3-(Azetidin-1-ylmethyl)-5-chlorobenzyl]-1-methyl-7-(1-methyl-1H-pyrazol-3-yl)-6H-pyrrolo[2,3-e][1,2,4]triazolo[4,3-a]pyridine tris(trifluoroacetate) Salt], the half-inhibitory concentration (IC50) in test [1] and in test [2] was at most 100 nM throughout.
With `Cc1cc2c(cc(NC3CCCN(C)C3)c3nnc(C)n32)n1Cc1ccccc1` (racemic) [Example 144, 6-benzyl-1,7-dimethyl-N-(1-methylpiperidin-3-yl)-6H-pyrrolo[2,3-e][1,2,4]triazolo[4,3-a]pyridin-4-amine], the IC50 in test [1] and in test [2] was at most 100 nM each time.
In the case of `Cc1nnc2ccc3c(cc(C(=O)NC(C)(C)C)n3Cc3cccc(Cl)c3)n12` [Example 120, N-(tert-Butyl)-6-(3-chlorobenzyl)-1-methyl-6H-pyrrolo[2,3-e][1,2,4]triazolo[4,3-a]pyridine-7-carboxamide Trifluoroacetate Salt], the IC50 in test [1] and in test [2] was 100 to 1000 nM throughout.
Turning to `CCNC(=O)c1cc2c(ccc3nnc(C)n32)n1Cc1cc(Cl)cc(CN2CCCC2)c1` [Example 133, 6-[3-Chloro-5-(pyrrolidin-1-ylmethyl)benzyl]-N-ethyl-1-methyl-6H-pyrrolo[2,3-e][1,2,4]triazolo[4,3-a]pyridine-7-carboxamide bis(trifluoroacetate) Salt], the IC50 in test [1] and in test [2] was at most 100 nM in each case.
For the compound `Cc1cc2c(cc(Nc3ccccn3)c3nnc(C)n32)n1Cc1ccccc1` [Example 240, 6-benzyl-1,7-Dimethyl-N-(pyridin-2-yl)-6H-pyrrolo[2,3-e][1,2,4]triazolo[4,3-a]pyridin-4-amine], the IC50 in test [1] and in test [2] was at most 100 nM throughout.
As to `Cc1cc2c(cc(NC(N)=O)c3nnc(C)n32)n1Cc1ccc(F)cc1` [Example 239, 1-(6-(4-Fluorobenzyl)-1,7-dimethyl-6H-pyrrolo[2,3-e][1,2,4]triazolo[4,3-a]pyridin-4-yl)urea], the IC50 in test [1] and in test [2] was at most 100 nM throughout.
Consider `Cc1nnc2ccc3c(cc(-c4cn(C)cn4)n3Cc3ccccc3)n12` [Example 70, 6-benzyl-1-methyl-7-(1-methyl-1H-imidazol-4-yl)-6H-pyrrolo[2,3-e][1,2,4]triazolo[4,3-a]pyridine], for which the IC50 in test [1] and in test [2] was at most 100 nM in each case.
On to `CNC(=O)c1cc2c(ccc3nnc(C)n32)n1Cc1ccccc1` [Example 82, 6-benzyl-N,1-dimethyl-6H-pyrrolo[2,3-e][1,2,4]triazolo[4,3-a]pyridine-7-carboxamide], for which the IC50 in test [1] and in test [2] was at most 100 nM in each case.
Take `CCCNC(=O)c1cc2c(ccc3nnc(C)n32)n1Cc1ccccc1` [Example 83, 6-benzyl-1-methyl-N-propyl-6H-pyrrolo[2,3-e][1,2,4]triazolo[4,3-a]pyridine-7-carboxamide]: the half-inhibitory concentration (IC50) in test [1] and in test [2] was at most 100 nM in each case.
Consider `CCOC(=O)N1CC(n2ccc(-c3cc4c(ccc5nnc(C)n54)n3Cc3cccc(Cl)c3)n2)C1` [Example 167, Ethyl 3-{3-[6-(3-chlorobenzyl)-1-methyl-6H-pyrrolo[2,3-e][1,2,4]triazolo[4,3-a]pyridin-7-yl]-1H-pyrazol-1-yl}azetidine-1-carboxylate Trifluoroacetate Salt], for which the IC50 in test [1] and in test [2] was at most 100 nM throughout.
With `Cc1nnc2ccc3c(cc(-c4ccn(C)n4)n3Cc3ccccc3)n12` [Example 76, 6-benzyl-1-methyl-7-(1-methyl-1H-pyrazol-3-yl)-6H-pyrrolo[2,3-e][1,2,4]triazolo[4,3-a]pyridine], the IC50 in test [1] and in test [2] was at most 100 nM in each case.
Take `Cc1cc2c(ccc3nnc(C)n32)n1CCc1ccccc1` [Example 6, 1,7-dimethyl-6-(2-phenylethyl)-6H-pyrrolo[2,3-e][1,2,4]triazolo[4,3-a]pyridine]: the IC50 in test [1] and in test [2] was 100 to 1000 nM in each case.
`Cc1cc2c(ccc3nnc(C)n32)n1Cc1cccc(F)c1` [Example 15, 6-(3-fluorobenzyl)-1,7-dimethyl-6H-pyrrolo[2,3-e][1,2,4]triazolo[4,3-a]pyridine]: the IC50 in test [1] and in test [2] was at most 100 nM throughout.
Regarding `Cc1cc2c(cc(NC(=O)OC(C)(C)C)c3nnc(C)n32)n1Cc1ccccc1` [Example 248, tert-Butyl 6-benzy1-1,7-dimethyl-6H-pyrrolo[2,3-e][1,2,4]triazolo[4,3-a]pyridin-4-ylcarbamate], the figures for the IC50 in test [1] and in test [2] were 100 to 1000 nM and at most 100 nM, respectively.
The matching figures for `CNC(=O)c1cc2c(ccc3nnc(C)n32)n1Cc1cc(Cl)cc(CN2CCC(F)(F)C2)c1` [Example 134, 6-{3-Chloro-5-[(3,3-difluoropyrrolidin-1-yl)methyl]benzyl}-N,1-dimethyl-6H-pyrrolo[2,3-e][1,2,4]triazolo[4,3-a]pyridine-7-carboxamide 2.4×(trifluoroacetate) Salt]: at most 100 nM and at most 100 nM.
The matching figures for `Cc1nnc2ccc3c(cc(-c4c[nH]cn4)n3Cc3cccc(Cl)c3)n12` [Example 172, 6-(3-Chlorobenzyl)-7-(1H-imidazol-4-yl)-1-methyl-6H-pyrrolo[2,3-e][1,2,4]triazolo[4,3-a]pyridine bis(trifluoroacetate) Salt]: at most 100 nM and at most 100 nM.
The matching figures for `Cc1cc2c(cc(NC3CCOCC3)c3nnc(C)n32)n1Cc1ccccc1` [Example 146, 6-benzyl-1,7-dimethyl-N-(tetrahydro-2H-pyran-4-yl)-6H-pyrrolo[2,3-e][1,2,4]triazolo[4,3-a]pyridin-4-amine]: at most 100 nM and at most 100 nM.
As for `Cc1nnc2ccc3c(cnn3Cc3ccccc3)n12` [Example 112, 6-benzyl-1-methyl-6H-pyrazolo[3,4-e][1,2,4]triazolo[4,3-a]pyridine], the IC50 in test [1] and in test [2] was 100 to 1000 nM in each case.
For `CNC(=O)c1cc2c(ccc3nnc(C)n32)n1Cc1cc(Cl)cc(CN2CC(C)(C)C2)c1` [Example 135, 6-{3-Chloro-5-[(3,3-dimethylazetidin-1-yl)methyl]benzyl}-N,1-dimethyl-6H-pyrrolo[2,3-e][1,2,4]triazolo[4,3-a]pyridine-7-carboxamide bis(trifluoroacetate) Salt], the IC50 in test [1] and in test [2] was at most 100 nM in each case.
Consider `Cc1nnc2ccc3c(cc(-c4ccn(CC#N)n4)n3Cc3ccccc3)n12` [Example 65, [3-(6-benzyl-1-methyl-6H-pyrrolo[2,3-e][1,2,4]triazolo[4,3-a]pyridin-7-yl)-1H-pyrazol-1-yl]acetonitrile], for which the IC50 in test [1] and in test [2] was at most 100 nM each time.
For the compound `Cc1cc2c(cc(NS(C)(=O)=O)c3nnc(C)n32)n1Cc1ccccc1` [Example 271, N-(6-Benzyl-1,7-dimethyl-6H-pyrrolo[2,3-e][1,2,4]triazolo[4,3-a]pyridin-4-yl)methanesulfonamide], the IC50 in test [1] was 100 to 1000 nM; in test [2] it was at most 100 nM.
As to `Cc1cc2c(ccc3nnc(C)n32)n1Cc1ccccc1` [Example 2, 6-benzyl-1,7-dimethyl-6H-pyrrolo[2,3-e][1,2,4]triazolo[4,3-a]pyridine], the IC50 in test [1] and in test [2] was at most 100 nM each time.
Regarding `Cc1nnc2ccc3c(cc(-c4cn(CCC#N)cn4)n3Cc3ccccc3)n12` [Example 81, 3-[4-(6-benzyl-1-methyl-6H-pyrrolo[2,3-e][1,2,4]triazolo[4,3-a]pyridin-7-yl)-1H-imidazol-1-yl]propanenitrile], the IC50 in test [1] and in test [2] was at most 100 nM in each case.
Regarding `CCC(=O)N1CC(n2ccc(-c3cc4c(ccc5nnc(C)n54)n3Cc3cccc(Cl)c3)n2)C1` [Example 163, 6-(3-Chlorobenzyl)-1-methyl-7-[1-(1-propionylazetidin-3-yl)-1H-pyrazol-3-yl]-6H-pyrrolo[2,3-e][1,2,4]triazolo[4,3-a]pyridine Trifluoroacetate Salt], the IC50 in test [1] and in test [2] was at most 100 nM throughout.
Consider `Cc1nnc2ccc3c(cc(-c4ccn(C)n4)n3Cc3cc(Cl)cc(CN4CCOCC4)c3)n12` [Example 192, 6-[3-Chloro-5-(morpholin-4-ylmethyl)benzyl]-1-methyl-7-(1-methyl-1H-pyrazol-3-yl)-6H-pyrrolo[2,3-e][1,2,4]triazolo[4,3-a]pyridine bis(trifluoroacetate) Salt], for which the IC50 in test [1] and in test [2] was at most 100 nM each time.
Consider `Cc1cc2c(cc(NCCN3CCOCC3)c3nnc(C)n32)n1Cc1ccccc1` [Example 208, 6-Benzyl-1,7-dimethyl-N-(2-morpholin-4-ylethyl)-6H-pyrrolo[2,3-e][1,2,4]triazolo[4,3-a]pyridin-4-amine], for which the IC50 in test [1] and in test [2] was at most 100 nM each time.
